US6441133B1, “Thyrotropin-releasing hormone receptor 2(TRHR-2)” (AstraZeneca Canada Inc., priority 1996, dated 2002)
Read-outs that look alike come from different tables or passages of the source. One block for each molecule: values may come before it. Where a SMILES comes first, the peptide text is derived from it. Where no end group is shown, it is not given here. [ ]: non-standard residue; d: D form. pGlu = O=C1CC[C@@H](C(=O)O)N1

Columns and labels:
[1] = molecular target: Thyrotropin-releasing hormone receptor 2 (TRHR-2), rat, expressed in HEK293s cells from pCDNA3-TRHR2 (rat); assay: competition with 3H-TRH tracer on whole cells, 293S/TRH-R clonal cell line
TRHR-2 [2] = molecular target: T1, TRHR-2 (Rattus norvegicus, UniProt A6IZR3); assay: 3H-TRH radioligand binding on whole HEK293s cells stably expressing TRHR-2
T1 construct: expressed in transfected cells; host or cells: HEK293s
T1 sequence (A6IZR3 1-352): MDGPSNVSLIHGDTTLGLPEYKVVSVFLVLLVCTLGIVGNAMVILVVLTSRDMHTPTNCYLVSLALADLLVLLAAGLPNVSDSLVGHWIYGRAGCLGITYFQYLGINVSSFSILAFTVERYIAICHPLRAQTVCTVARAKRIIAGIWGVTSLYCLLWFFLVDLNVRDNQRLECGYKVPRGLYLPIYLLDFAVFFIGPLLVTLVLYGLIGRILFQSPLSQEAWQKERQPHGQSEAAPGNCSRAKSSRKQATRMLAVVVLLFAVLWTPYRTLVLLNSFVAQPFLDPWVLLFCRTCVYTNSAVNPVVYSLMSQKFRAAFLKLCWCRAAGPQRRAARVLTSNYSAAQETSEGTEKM
Procedure: (§1) The TRH binding assay was performed on whole cells. Transfected cells were washed twice with HBSS (Gibco BRL, cat# 14065) supplemented with 0.05% bovine serum albumin, detached by gentle pipetting and aliquoted in eppendorf tubes for binding assays. One twentieth of the cells collected from a confluent 75 cm^2 flask was used per assay point. The binding reaction was performed in a total volume of […] of binding buffer (HBSS+0.05% bovine serum albumin) containing the transfected cells and 10 nM of^3H-thyrotropin releasing hormone (Peninsula Laboratories Inc, cat # 7501) with or without unlabelled competitors. Non-specific binding was estimated in the presence of 1 mM of unlabelled TRH. Reactions were carried out for 60 min at room temperature and reactions were stopped by filtration through Unifilters-96 GF/B filters (Canberra Packard cat # 6005177) using the 96-well Filtermat 196 filtration system from Canberra Packard. The filters were washed 3 times with 1 ml of washing buffer (50 mM Tris(HCl), 3 mM MgCl2, pH 7.0). They were then dried at 55° C. for one hour and 50 μl of mScint-20 (Canberra Packard) was added per well. Filters were counted with the Topcount microplate counter from Canberra Packard.
HEK293s cells in a 10 cm petri dish were transfected with […] pCDNA3-TRHR2. After 14 days of selection in culture medium containing 600 μg/ml G418, resistant colonies were pooled. Then, single clones were purified by 2 rounds of limited dilution in 96 well plates. Clones of HEK293s cells expressing different levels of TRHR-2 receptor were selected using a 3H-TRH binding assay.

[3] = molecular target: T2, TRH receptor (TRHR-1) of GH4C1 cells (Rattus norvegicus, UniProt Q01717); assay: 3H-TRH radioligand binding on GH4C1 cells
T2 construct: endogenous in cells; host or cells: GH4C1
T2 sequence (Q01717 1-412): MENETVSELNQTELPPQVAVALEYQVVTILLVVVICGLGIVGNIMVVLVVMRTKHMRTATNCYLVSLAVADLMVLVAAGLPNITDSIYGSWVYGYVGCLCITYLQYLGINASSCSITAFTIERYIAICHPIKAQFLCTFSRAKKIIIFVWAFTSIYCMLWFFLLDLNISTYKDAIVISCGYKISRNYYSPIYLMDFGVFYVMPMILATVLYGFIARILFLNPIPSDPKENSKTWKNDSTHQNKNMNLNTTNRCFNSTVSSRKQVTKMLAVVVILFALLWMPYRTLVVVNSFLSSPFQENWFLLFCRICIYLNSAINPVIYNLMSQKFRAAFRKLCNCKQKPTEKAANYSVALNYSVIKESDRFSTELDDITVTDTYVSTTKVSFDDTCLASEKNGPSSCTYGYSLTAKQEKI

[4] = molecular target: Thyrotropin-releasing hormone receptor 2 (TRHR-2), rat, expressed in HEK293s cells from pCDNA3-TRHR2 (rat); assay: saturation radioligand binding on whole HEK 293 cells expressing TRHR-2
[5] = molecular target: TRH receptor of GH4C1 cells (TRHR-1) (UniProt Q01717); assay: radioligand binding on whole GH4C1 cells
[6] = molecular target: Thyrotropin-releasing hormone receptor 2 (TRHR-2), rat, expressed in HEK293s cells from pCDNA3-TRHR2 (rat); assay: radioligand binding on whole cells, 293S/TRH-R clonal cell line
TRHR-2 [7] = molecular target: T1, TRHR-2; assay: Intracellular calcium mobilization (Fura 2) in HEK293/TRHR-2 cells; type: cell-based
Procedure: Intracellular calcium concentration changes where determined by fluorescence measurement of the intracellular, calcium-sensitive indicator Fura 2. Briefly, HEK293s cells were grown on glass cover slips in culture medium at 37° C., 5% CO2 and diluted 10 fold every 3 days. The cells were loaded at room temperature for 30 min using […] of is Fura 2/AM in simplified Grace's solution (SGS buffer) physiological buffer (NBS: 135 mM NaCl, 5 mM KCl, 1.8 mM CaCl2, 1.2 mM MgSO4, 10 mM HEPES, pH 7.4). Fura 2/AM is a membrane permeant, calcium-insensitive ester of Fura 2. After three washes in Fura-2 /AM-free buffer, the cells were incubated for 15 to 30 min in SGNBS at room temperature to insure full hydrolysis of the Fura 2 ester. The calcium-sensitive, hydrolyzed form of Fura 2 remains trapped intracellularly. Experiments were conducted at room temperature on single cells or small groups of 3 to 7 cells in a coverslip holder fitted to the stage of an IMT-2 inverted microscope equipped with a 40×-epifluorescence objective (UVFL40, 0.85, Olympus Optical Co, Tokyo) and coupled to a PTI ratio fluorescence system (Photon Technology International, London, Ontario, Canada). Sample illumination was provided by a 75 W xenon light source attached to a filter-based light chopper unit which provided 340 and 380 nm excitation wavelength alternating at a frequency of 5 Hz. The emitted light was passed through an adjustable rectangular aperture followed by a 505 nm interference filter (10-nm bandwidth), and its intensity was recorded by a photon counter detector. Dye leakage, as determined by loss of fluorescence over a period of 30 min, was undetectable at both excitation wavelengths.
The ratio of the fluorescence intensity at the two excitation wavelengths can be converted into an estimate of ionized intracellular calcium concentration by use of the formula: [Ca^2+]i=Kd×(Fmin/Fmax)×(R-Rmin)/(Rmax-R), where R, Rmin, and Rmax are the fluorescence ratios recorded during the experiment (R) and during calibration tests on unlysed cells using […] ionomycin in SGNBS (Rmax), followed by 10 mM EGTA addition at pH 8.2 (Rmin). Fmin and Fmax are the corresponding fluorescence intensities for the 380 nm excitation and Kd is the Fura-2 dissociation constant at room temperature (135 nM).
Small volumes (10-50 μl) of drugs (hormones, agonists, neurotransmitters, TRH, bradykinin) from prediluted stock solutions prepared in the appropriate buffer solutions were directly added to the experimental chamber.

[8] = I.C.V. injection, on a molar basis (Boschi et al. 1983); cited from earlier work
[9] = molecular target: T3, Thyrotropin-releasing hormone receptor 2 (TRHR-2), rat, expressed in HEK293s cells from pCDNA3-TRHR2 (rat); assay: 3H-TRH competition on cells expressing TRHR-2 (assay not restated in the sentence)
T3 construct: 352 amino acid open reading frame cloned from a rat brain stem-spinal cord cDNA library; also called TRH receptor 2; 293S/TRH-R clonal cell line
T3 chain: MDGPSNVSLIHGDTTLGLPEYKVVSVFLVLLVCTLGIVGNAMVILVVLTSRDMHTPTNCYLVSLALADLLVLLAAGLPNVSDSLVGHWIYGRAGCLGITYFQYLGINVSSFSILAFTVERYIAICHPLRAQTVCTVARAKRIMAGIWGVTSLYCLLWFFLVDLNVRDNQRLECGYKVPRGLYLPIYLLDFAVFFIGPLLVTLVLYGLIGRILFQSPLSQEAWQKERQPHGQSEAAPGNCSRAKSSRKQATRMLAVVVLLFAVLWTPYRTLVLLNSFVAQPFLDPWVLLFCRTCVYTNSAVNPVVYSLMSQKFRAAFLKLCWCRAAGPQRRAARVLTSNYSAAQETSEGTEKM
Procedure: as §1, with “cm²” for “cm^2”, “of ³H-thyrotropin” for “of^3H-thyrotropin”, “MgCl_2,” for “MgCl2,”, “µl” for “μl”
(§2) A binding reaction was performed using HEK 293 cells expressing TRHR-2. […] Various TRH-related peptides were used in competition experiments.

[10] = molecular target: T3, Thyrotropin-releasing hormone receptor …; assay: competition with 3H-TRH tracer on whole cells, 293S/TRH-R clonal cell line
Procedure: as §1, with “cm²” for “cm^2”, “of ³H-thyrotropin” for “of^3H-thyrotropin”, “MgCl_2,” for “MgCl2,”, “µl” for “μl”
as §2

[11] = 293S/TRH-R clonal cell line, three independent experiments, read-out: IC50
[12] = HEK 293 cells expressing TRHR-2, read-out: IC50 in competition with 3H-TRH as tracer
[13] = GH4C1 cells, three independent experiments
[14] = nanomolar concentrations of TRH

Molecule: pGlu-3-methyl-His-Pro-amide (peptide)
IC50 [1]: 2.2 nM

Molecule: Thyrotropin-releasing hormone (TRH), pGlu-His-Pro-amide, unlabelled (peptide)
IC50 [1]: 8.39 nM

Molecule: ^3H-thyrotropin releasing hormone [^3H-TRH]
Kd (TRHR-2 [2]; 293S/TRH-R clonal cell line, three independent experiments, read-out: Kd): 6.17 ± 1.51 nM
Kd (TRHR-2 [2]; HEK 293 cells expressing TRHR-2, saturation binding, read-out: estimated Kd for 3H-TRH): 2.5 nM
Kd [3, 13]: 5.32 ± 1.63 nM

Molecule: NC(=O)[C@@H]1CCCN1C(=O)[C@H](Cc1cnc[nH]1)NC(=O)[C@@H]1CCC(=O)N1 [TRH, pyroglutamic acid-histidine-proline-amide]
IC50 (TRHR-2 [2]; [11]): 8.39 ± 2.31 nM
IC50 (TRHR-2 [2]; [12]): 8.3 nM
IC50 [3, 13]: 5.33 ± 2.81 nM
need of extracellular calcium for the transient rise in [Ca++]i (TRHR-2 [7]): did not require the presence of extracellular calcium
change of intracellular calcium concentration (TRHR-2 [7]; [14]): marked transient increase in the intracellular calcium concentration
time to peak of [Ca++]i (TRHR-2 [7]; [14]): about 1 second
time until baseline [Ca++]i was attained (TRHR-2 [7]; [14]): about 1 minute
analgesia relative to morphine [8]: twice as great

Other lines, results leading:

IC50 (TRHR-2 [2]; [11]): 641 ± 75.2 nM
IC50 (TRHR-2 [2]; [12]): 640 nM
Ki (TRHR-2 [2]; read-out: Ki value to the TRHR-2 receptor): 640 nM
binding to GH4C1 cells [3]: does not show any binding
IC50 [3, 13]: > 10000 nM
Molecule: O=C(O)CNC(=O)[C@@H]1CCCN1C(=O)[C@H](Cc1c[nH]cn1)NC(=O)[C@@H]1CCC(=O)N1 [pGlu-His-Pro-Gly] ([pGlu]HPG-OH; C-terminus assumed)

Bmax (fmol/mg proteins) [4]: 430
Kd [4]: 2.5 nM
BMAX [5]: 577 fmol/mg
Kd [5]: 5.32 nM
BMAX [6]: 535 fmol/mg
Kd [6]: 6.17 nM
Molecule: 3H-thyrotropin releasing hormone (tritium-labelled TRH, Peninsula Laboratories) (peptide)

IC50 (TRHR-2 [2]; [11]): > 10000 nM
IC50 (TRHR-2 [2]; [12]): > 10000 nM
IC50 [3, 13]: > 10000 nM
Molecule: NC(=O)[C@@H]1CCCN1C(=O)[C@H](CCC(=O)O)NC(=O)[C@@H]1CCC(=O)N1 [pGlu-Glu-Pro-amide] ([pGlu]-Glu-Pro-NH2)

IC50 (TRHR-2 [2]; [12]): 2.2 nM
IC50 [3, 13]: 0.43 ± 0.27 nM
Molecule: Cn1cnc(C[C@H](NC(=O)[C@@H]2CCC(=O)N2)C(=O)N2CCC[C@H]2C(N)=O)c1 [pGlu-3-methyl-His-Pro-amide]

Ki [9]: 640 nM
IC50 [10]: 641 nM
B1: pGlu-His-Pro-Gly (peptide)
peptide: [pGlu]HPG
notes: TRH-related peptide with a modified C-terminus
